Columns and labels:
[1] = target: T1, yeast α-factor receptor (STE2) (Saccharomyces cerevisiae, UniProt D6VTK4); test: ELISA of agonist-induced well marking by ARY84 (dephosphorylation of AF12402 tether, 3E7 detection); format: cell-based; conditions: for Well-marking activity: selective conditions
T1 construct: expressed in transfected cells; host or cells: yeast strain ARY84 (Δste2::ura3, plasmid pRS416(URA3)-STE2)
T1 sequence (D6VTK4 1-431): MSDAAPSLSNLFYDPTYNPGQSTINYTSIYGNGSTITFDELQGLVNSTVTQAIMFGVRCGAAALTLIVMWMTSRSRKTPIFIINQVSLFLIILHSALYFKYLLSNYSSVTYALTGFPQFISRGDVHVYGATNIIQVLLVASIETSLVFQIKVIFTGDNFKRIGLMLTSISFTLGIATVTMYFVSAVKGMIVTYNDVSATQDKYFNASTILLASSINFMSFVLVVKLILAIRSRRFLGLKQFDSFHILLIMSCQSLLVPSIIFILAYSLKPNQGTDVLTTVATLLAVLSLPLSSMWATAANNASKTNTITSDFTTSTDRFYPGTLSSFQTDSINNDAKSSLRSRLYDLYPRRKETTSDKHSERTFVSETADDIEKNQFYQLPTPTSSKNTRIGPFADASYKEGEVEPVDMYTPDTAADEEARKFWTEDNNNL
Description: A plastic 96-well immunoassay plate (Beckman #373660) was coated with 0.41 μM streptavidin for 1 hour at 37° C. After washing, it was blocked with 1×PBS, 1% bovine serum albumin (BSA) for 1 hr at 37° C. After washing, 100 nM of AF12402 ((H)-(Phospho-Y)[…](biotin)(OH)) (SEQ ID NO:7) in 1×PBS, 0.1% BSA was incubated on the plate overnight at 4° C. The wells were washed with 1×PBS and a yeast culture containing ARY84 at a density of OD600 =0.1 in defined medium was added to the plate. The following conditions were tested: +growth selection, no α-factor; +growth selection, +500 nM α-factor.
After addition of yeast the culture was either removed immediately (t=0; wells were filled with 1×PBS/ 0.1% BSA) or after 24 hr incubation at 30° C. At the end of the incubation, the wells were washed and developed using a standard protocol with 1 nM 3E7 antibody for the primary development (4° C., 1 hr) and 1/1000 diluted alkaline phosphatase conjugated goat anti-mouse antibody (Gibco) at 4° C. for 1 hr. Binding of antibodies was quantitated using a standard colorimetric alkaline-phosphatase reaction (see Cull et al., PNAS 89, 1865-1869 (1992)).

STE2 receptor = target: T2, STE2 receptor (Saccharomyces cerevisiae, UniProt D6VTK4); test: Bead tether modification by yeast acid phosphatase, FACScan of 3E7-coated beads; format: cell-based; conditions: 500 nM alpha factor, beads exposed 18 hr, 200 nM AF12402
T2 construct: expressed in transfected cells; host or cells: yeast strain ARY84 (Δste2::ura3, plasmid pRS416(URA3)-STE2)
T2 sequence (D6VTK4 1-431): T1 sequence (D6VTK4 1-431)
Excerpt: This system employs yeast ARI 84 reporter cells bearing an STE2 receptor and containing a reporter construct in which a pho3 gene is linked to a FUS1 promoter. Acid phosphatase expressed by the yeast is used to dephosphorylate the substrate phospho-YGGFL-linker-biotin. (SEQ ID NO:25) As a result of dephosphorylation, the substrate can bind to a 3E7 antibody tether. The biotinylated portion of modified tethers is stained using a PE- or alkaline-phosphatase-conjugated streptavidin. Complexes with stained tethers are sorted by FACS™.
ARY84 culture from a fresh, 4-10 day old patch was grown in 3 ml SC minimal media minus Trp, Ura, Leu, pH adjusted to 6.15 using MES buffer 200 mM final at @30C overnight in a tube rotator. At A600, the growing culture was diluted to 0.1 A600 in duplicate in pH 6.15 SC media minus Trp, Ura, Leu. One diluted culture was induced by addition of alpha factor to 500 nM final concentration. 0.1 ml of the appropriate diluted induced or uninduced culture was added to wells of a BSA-blocked 96-well microtitre plate. […]
A desired amount of monobeads (at about 1×10^7 beads/ml) was washed once in 0.5 ml methanol, and twice in 1 ml PBS, pH 7.5. […] The density of beads was determined and about 1×10^5 beads were added to each well (after washing with PBS 0.1% BSA to remove the azide). […]
Staining was analyzed by running the beads through a Becton Dickinson FACScan™ machine. […]

α-factor
Increase in OD405 compared to wells lacking α-factor ([1]; 24 hr growth of yeast in the wells, 0.5 µM): 4 fold
Well-marking activity ([1]; T = 0, 500 nM alpha factor): 0.11 OD405 units/minute
Well-marking activity ([1]; T = 0, 500 nM alpha factor, listed as alpha factor): 0.113 OD405 units/minute
Well-marking activity ([1]; T = 24 Hrs, 500 nM alpha factor): 0.8 OD405 units/minute
FACScan shift of beads, induced vs not induced yeast (STE2 receptor): 10 fold
